Publication PMC9655618 (Cancers, 2022)

Tests used:
Ishikawa cells = experiment: MTT cell viability assay; assay type: cell-based, human; conditions: Homo sapiens, Ishikawa, read-out: IC50 (μM) ISHIKAWA, 72 h, 10%FBS growth media
Method: (§1) Straightforward, the tetrazolium salt 3-(4,5-methyltiazol-2yl-)-2,5diphenyl-tetrazolium bromide (MTT) (Applichen, Darmstadt, Germany) was added to cells, incubated for 2–4 h at 37 °C, and lysed in 10% SDS.

SK-BR-3 cells = experiment: MTT cell viability assay; assay type: cell-based, human; conditions: Homo sapiens, SK-BR-3, 72 h, 10%FBS growth media
Method: as §1

T47D cells = experiment: Cell cycle analysis by flow cytometry; assay type: cell-based, human; conditions: 5 μM; 48h
Method: For cell cycle studies, unsynchronized T47D cells were seeded at 250,000 cells/well in RPMI (Biowest, Nuaillé, France) 10% FBS medium supplemented with L-glutamine (2 mM), HEPES (10 mM), sodium pyruvate (1 mM) and PEST. […] Cells were then washed in ice-cold PBS and fixed in cold 70% ethanol at −20 °C overnight. Then, the cell pellet was resuspended in FACs buffer (2 mM EDTA, 2% FBS in PBS) and incubated with Ki67-APC antibody (Miltenyi Biotec, Auburn, CA, USA) and DAPI (4′,6-diamidino-2-phenylindole; Sigma-Aldrich) for 20 min at room temperature. Finally, cells were washed and resuspended with FACs Buffer for cell cycle analyses. For apoptosis studies, an Annexin V-FITC Apoptosis Kit (Miltenyi Biotec) was used. Briefly, treated cells were collected in 100 μL of ice-cold AnnexinV binding buffer (10 mM HEPES pH 7.4, 140 mM NaCl, 2.5 mM CaCl2) containing 10 μL of Annexin-V FITC and incubated for 15 min at room temperature. After that, cells were washed with 1 mL binding buffer, sedimented at 300× g 10 min, and resuspended with 500 μL binding buffer containing 5 μL of propidium iodide (PI; 100 μg/mL) prior to acquisition in MACSQuant10 cytometer (Miltenyi Biotec) where 10,000 or 20,000 events were used for cell cycle and apoptosis analysis, respectively.

[1] = tested on: polyubiquitinated protein level in T47D cells; experiment: Immunoblotting; assay type: cell-based, human; conditions: from 24 h to 72 h
Method: Then, they were washed with ice-cold PBS supplemented with 1 mM ortovanadate and lysed with RIPA buffer containing protease and phosphatase inhibitors (Thermo Fisher Scientific, Waltham, MA, USA). Equal protein amounts were analyzed by SDS–PAGE, and transferred to nitrocellulose membranes (Thermo Fisher Scientific, Waltham, MA, USA), blocked with Tris-buffered saline/0.05% Tween 20 (TBS-T) containing 5% blotto (Merck, Darmstadt, Germany) or 5% BSA for total and phosphorylated proteins, respectively. Immunoblotting was carried out with mouse anti-ERα F-10 (Santa Cruz Biotech, Santa Cruz, CA, USA), rabbit total anti-STAT5 (Cell Signaling Technology, Leiden, The Netherlands) or mouse anti-polyubiquitin (EMD Millipore, Burlington, MA, USA). After washing, membranes were incubated with horseradish peroxidase-conjugated secondary antibodies (Bio-Rad) for 1 h at room temperature. The β-actin antibody (Santa Cruz Biotech, CA, USA) was used as the loading control. Finally, protein bands were visualized by using Clarity™ Western ECL Substrate (Bio-Rad) in the ChemiDoc XRS system (Bio-Rad) and were analyzed with Quantity One software (Bio-Rad).

[2] = tested on: STAT3 transcriptional activity in HEK293 cells; experiment: IL6-induced STAT3 transcriptional activity, Renilla reporter HEK-293 cells; conditions: 4 h pretreatment, hIL6 10 ng/ml 16 h
[3] = tested on: ERα-mediated transcription (3xERE-luciferase), T47D-KBluc cells; experiment: ER-dependent transcriptional activity, 3xERE-luciferase reporter in T47D-KBluc cells; conditions: until dropping to 20% Emax
[4] = tested on: STAT5 transcriptional activity in Ba/F3 cells; experiment: IL3-stimulated STAT5 transcriptional activity, Renilla reporter Ba/F3 cells; conditions: 4 h pretreatment, mIL3 30 ng/ml 16 h

SMILES | IC50 (Ishikawa cells) | IC50 (SK-BR-3 cells) | G2/S/M cells (T47D cells) | effect on polyubiquitinated protein level [1] | IC50, IL6-induced STAT3 transcriptional activity [2] | effect on E2-induced luciferase activity [3] | IC50, IL3-stimulated STAT5 transcriptional activity [4]
O=C1C(c2ccc([N+](=O)[O-])cc2)=CC(O)(c2ccccc2)N1Cc1ccccc1 (stereo not drawn) [compound 35, 1-benzyl-5-hydroxy-3-(4-nitrophenyl)-5-phenyl-1H-pyrrol-2(5H)-one] | 1.29 ± 0.38 µM | 2 ± 0.18 µM | 16.52% | significantly increased polyubiquitinated protein level | inactive | reduced E2-induced luciferase activity | –
Cc1ccc(C2=CC(O)(c3ccccc3)N(Cc3ccccc3)C2=O)cc1C (stereo not drawn) [compound 32, 1-benzyl-3-(3,4-dimethylphenyl)-5-hydroxy-5-phenyl-1H-pyrrol-2(5H)-one] | 0.27 ± 0.09 µM | 1.51 ± 0.09 µM | – | – | – | – | no activity
